Source: US20200407717A1, “METHODS OF MODULATING ANTISENSE ACTIVITY” (Ionis Pharmaceuticals, Inc., priority 2018, published 2020)
e = 2'-O-(2-methoxyethyl) (MOE); k = constrained ethyl (cEt); d = 2'-deoxy (DNA); f = 2'-fluoro

Biological target: EGFR (Homo sapiens, UniProt P00533)
Assay: Competitive NanoBRET binding assay
Parameters: made in house; host or cells: HEK293 cells
Conditions: Competitive BRET vs 10 nM AF594-labeled 766636; Table 6
Procedure: NanoBRET (bioluminescence resonance energy transfer) binding assays were performed as described in Vickers and Crooke. PLOS One, 11(8), (2016). An EGFR NLuc construct was prepared by first amplifying human EGFR from the full length cDNA clone (Origene RC217223) with forward PCR primer 5′-[…]-3′ (SEQ ID NO: 1) and reverse PCR primer 5′-[…] (SEQ ID NO: 2). The amplified product was ligated into the NheI and XhoI sites of the NanoLuc expression vector pFC32K Nluc CMV-Neo (Promega). Protein was expressed in HEK293 cells and isolated using Protein G magnetic beads. For competitive BRET, the Alexafluor594-labeled modified oligonucleotide 766636 was diluted into water in opaque white 96-well plates at 10 nM and competed with 0.1-10,000 nM of unlabeled modified oligonucleotide. […] of 2× binding buffer containing […] (relative luminescence units) beads/well was added and plates were shaken for 10 minutes at room temperature. Nanoluciferase activity and BRET were measured in a Glowmax Discover plate reader and EC50 values, shown in the tables below, were calculated using GraphPad Prism. For direct BRET, Alexafluor594 modified nucleotides were diluted at 0.1-10,000 nM and experiments were performed as described above.

Sequence | EC50
AACGAGGTACTGTGTAAGTC (sugars from the 5' end f5 d10 f5, all phosphorothioate, methylation of C and T or U not given here) [compound 1147369] | 2630 nM
AAGCAGTTGGTGGTGC (sugars from the 5' end k3 d10 k3, all phosphorothioate, methylation of C not given here) [compound 999005] | 39.1 nM
AATCTCCTTGCTGTATTTGT (sugars from the 5' end f5 d10 f5, all phosphorothioate, methylation of C and T or U not given here) [compound 1147334, 5-10-5 2′-F gapmer, phosphorothioate] | 4370 nM
ACACGGTATTGCCCTTGAAA (sugars from the 5' end e5 d10 e5, all phosphorothioate, methylation of C not given here) [compound 110128, 5-10-5 2′-MOE gapmer, phosphorothioate] | 2280 nM
ACCCAATTCAGAAGGAAGGA (sugars from the 5' end e5 d10 e5, all phosphorothioate, methylation of C not given here) [compound 476366, 5-10-5 2′-MOE gapmer, phosphorothioate] | 2240 nM
AGGATGCATTGCTGAC (sugars from the 5' end k3 d10 k3, all phosphorothioate, methylation of C not given here) [compound 999006] | 1710 nM
AGTTGTCATGGATGAC (sugars from the 5' end k3 d10 k3, all phosphorothioate, methylation of C not given here) [compound 999003] | 2300 nM
ATATTGCATCAGATCTCAAT (sugars from the 5' end f5 d10 f5, all phosphorothioate, methylation of C and T or U not given here) [compound 1147370] | 4650 nM
AUAAUCTTCCAGGGCCACAA (sugars from the 5' end f5 d10 f5, all phosphorothioate, methylation of C not given here) [compound 1147360, 5-10-5 2′-F gapmer, phosphorothioate] | 108 nM
CAGCAGGCAACTGTCGCTGA (sugars from the 5' end e5 d10 e5, all phosphorothioate, methylation of C not given here) [compound 462026, 5-10-5 2′-MOE gapmer, phosphorothioate] | 670 nM
CCTTCCACAATGCCAA (sugars from the 5' end k3 d10 k3, all phosphorothioate, methylation of C not given here) [compound 999002, 3-10-3 cEt gapmer, phosphorothioate] | 633 nM
CCTTCCCTGAAGGTTCCTCC (sugars from the 5' end f5 d10 f5, all phosphorothioate, methylation of C and T or U not given here) [compound 804856, 5-10-5 2′-F gapmer, phosphorothioate] | 2750 nM
CTAACATGCAATACTGCAGA (sugars from the 5' end e5 d10 e5, all phosphorothioate, methylation of C not given here) [compound 395257, 5-10-5 2′-MOE gapmer, phosphorothioate] | 2630 nM
CTGATGATCTGCAGGTTTTC (sugars from the 5' end f5 d10 f5, all phosphorothioate, methylation of C and T or U not given here) [compound 1147367] | 114 nM
CTTTCCAGAGGGGCCA (sugars from the 5' end k3 d10 k3, all phosphorothioate, methylation of C not given here) [compound 998998, 3-10-3 cEt gapmer, phosphorothioate] | 7.25 nM
CUGUUGGGATATTTTAGCCU (sugars from the 5' end f5 d10 f5, all phosphorothioate, methylation of C not given here) [compound 1147366] | 87.2 nM
GACTGTGGTCATGAGC (sugars from the 5' end k3 d10 k3, all phosphorothioate, methylation of C not given here) [compound 999001] | 2340 nM
GAGTCAGTATCCCAGTGTCT (sugars from the 5' end f5 d10 f5, all phosphorothioate, methylation of C and T or U not given here) [compound 1147314, 5-10-5 2′-F gapmer, phosphorothioate] | 218 nM
GGCCATCACGCCACAG (sugars from the 5' end k3 d10 k3, all phosphorothioate, methylation of C not given here) [compound 998997, 3-10-3 cEt gapmer, phosphorothioate] | 2800 nM
TAAGTACTACTGGGCCATGG (sugars from the 5' end e5 d10 e5, all phosphorothioate, methylation of C not given here) [compound 324568, 5-10-5 2′-MOE gapmer, phosphorothioate] | 648 nM
TCCACAGTCTTCTGGG (sugars from the 5' end k3 d10 k3, all phosphorothioate, methylation of C not given here) [compound 998999, 3-10-3 cEt gapmer, phosphorothioate] | 214 nM
TCGTCTGTGCATCTCTCCTG (sugars from the 5' end f5 d10 f5, all phosphorothioate, methylation of C and T or U not given here) [compound 1147291, 5-10-5 2′-F gapmer, phosphorothioate] | 165 nM
TGGCAGTGATGGCATG (sugars from the 5' end k3 d10 k3, all phosphorothioate, methylation of C not given here) [compound 999000] | 1400 nM
TGGTAATCCACTTTCAGAGG (sugars from the 5' end e5 d10 e5, all phosphorothioate, methylation of C not given here) [compound 404071, 5-10-5 2′-MOE gapmer, phosphorothioate] | 3140 nM
TTCTGGGCAGCCCCAC (sugars from the 5' end k3 d10 k3, all phosphorothioate, methylation of C not given here) [compound 998996, 3-10-3 cEt gapmer, phosphorothioate] | 1430 nM
TTTTGGCAAAGTAATCGTCC (sugars from the 5' end e5 d10 e5, all phosphorothioate, methylation of C not given here) [compound 286529, 5-10-5 2′-MOE gapmer, phosphorothioate] | 1840 nM
